How the values were obtained:
[1] = system: patients with multiple sclerosis; assay: adverse events reported by patients
[2] = system: patients with multiple sclerosis; assay: category-rating scales, patient reporting of secondary outcomes; type: in vivo, human; conditions: category rating scale
[3] = system: patients with multiple sclerosis; assay: patient assessment of treatment benefit at visit 8; type: in vivo, human
[4] = system: patients with multiple sclerosis with problematic spasticity; assay: Ashworth score of spasticity, randomized placebo-controlled study; type: in vivo, human; conditions: baseline to 13 weeks follow-up (visit 7)

CCCCCc1cc(O)c2c(c1)OC(C)(C)[C@@H]1CCC(C)=C[C@@H]21 (relative stereo) [delta-9-THC, (6aR-trans)-6a,7,8,10a-tetrahydro-6,6,9-trimethyl-3-pentyl-6H-dibenzo[b,d]pyran-1-ol]
incidences of MS relapse ([1]; by comparison with placebo): greatly reduced
Adverse Event: Blocked/insertion of suprapubic catheter ([1]; number reported): 0
Adverse Event: Constipation ([1]; number reported): 0
Adverse Event: Grand mal seizure ([1]; number reported): 0
Adverse Event: MS relapse or possible relapse ([1]; number reported): 1
Adverse Event: Other ([1]; number reported): 11
Adverse Event: Pneumonia ([1]; number reported): 2
Adverse Event: Urinary tract infection ([1]; number reported): 3
Depression: Deterioration ([2]; number of patients): 42
Depression: Improvement ([2]; number of patients): 36
Depression: Same ([2]; number of patients): 47
Energy: Deterioration ([2]; number of patients): 49
Energy: Improvement ([2]; number of patients): 61
Energy: Same ([2]; number of patients): 63
Irritability: Deterioration ([2]; number of patients): 32
Irritability: Improvement ([2]; number of patients): 37
Irritability: Same ([2]; number of patients): 42
Pain: Deterioration ([2]; number of patients): 22
Pain: Improvement ([2]; number of patients): 64
Pain: Same ([2]; number of patients): 43
Shake/tremor: Deterioration ([2]; number of patients): 32
Shake/tremor: Improvement ([2]; number of patients): 52
Shake/tremor: Same ([2]; number of patients): 44
Sleep: Deterioration ([2]; number of patients): 24
Sleep: Improvement ([2]; number of patients): 71
Sleep: Same ([2]; number of patients): 57
Spasms: Deterioration ([2]; number of patients): 27
Spasms: Improvement ([2]; number of patients): 81
Spasms: Same ([2]; number of patients): 49
Spasticity: Deterioration ([2]; number of patients): 47
Spasticity: Improvement ([2]; number of patients): 89
Spasticity: Same ([2]; number of patients): 40
Tiredness: Deterioration ([2]; number of patients): 76
Tiredness: Improvement ([2]; number of patients): 35
Tiredness: Same ([2]; number of patients): 46
Depression: Deterioration ([2]; percent of patients): (34%)
Depression: Improvement ([2]; percent of patients): (29%)
Depression: Same ([2]; percent of patients): (38%)
Energy: Deterioration ([2]; percent of patients): (28%)
Energy: Improvement ([2]; percent of patients): (35%)
Energy: Same ([2]; percent of patients): (36%)
Irritability: Deterioration ([2]; percent of patients): (29%)
Irritability: Improvement ([2]; percent of patients): (33%)
Irritability: Same ([2]; percent of patients): (38%)
Pain: Deterioration ([2]; percent of patients): (17%)
Pain: Improvement ([2]; percent of patients): (50%)
Pain: Same ([2]; percent of patients): (33%)
Shake/tremor: Deterioration ([2]; percent of patients): (25%)
Shake/tremor: Improvement ([2]; percent of patients): (41%)
Shake/tremor: Same ([2]; percent of patients): (34%)
Sleep: Deterioration ([2]; percent of patients): (16%)
Sleep: Improvement ([2]; percent of patients): (47%)
Sleep: Same ([2]; percent of patients): (38%)
Spasms: Deterioration ([2]; percent of patients): (22%)
Spasms: Improvement ([2]; percent of patients): (49%)
Spasms: Same ([2]; percent of patients): (29%)
Spasticity: Deterioration ([2]; percent of patients): (27%)
Spasticity: Improvement ([2]; percent of patients): (51%)
Spasticity: Same ([2]; percent of patients): (23%)
Tiredness: Deterioration ([2]; percent of patients): (48%)
Tiredness: Improvement ([2]; percent of patients): (22%)
Tiredness: Same ([2]; percent of patients): (29%)
Symptom Improvement, Bladder: No ([3]; number of patients): 97
Symptom Improvement, Bladder: Yes ([3]; number of patients): 67
Symptom Improvement, Pain: No ([3]; number of patients): 64
Symptom Improvement, Pain: Yes ([3]; number of patients): 64
Symptom Improvement, Spasticity: No ([3]; number of patients): 73
Symptom Improvement, Tremor: No ([3]; number of patients): 67
Symptom Improvement, Tremor: Yes ([3]; number of patients): 44
Symptom Improvement, Bladder: No ([3]; percent of patients): 59%
Symptom Improvement, Bladder: Yes ([3]; percent of patients): 40%
Symptom Improvement, Pain: No ([3]; percent of patients): 50%
Symptom Improvement, Pain: Yes ([3]; percent of patients): 50%
Symptom Improvement, Spasticity: No ([3]; percent of patients): 40%
Symptom Improvement, Spasticity: Yes ([3]; percent of patients): 60%
Symptom Improvement, Tremor: No ([3]; percent of patients): 60%
Symptom Improvement, Tremor: Yes ([3]; percent of patients): 40%
Mean (SD) change in Ashworth score, upper-body muscle groups (baseline minus follow-up) [4]: 0.48 (4.70)
